Test results from ChEMBL document CHEMBL1129394, “Studies on selectin blocker. 3. Investigation of the carbohydrate ligand sialyl Lewis X recognition site of P-selectin” (J Med Chem, 1996).

Target: T1, P-selectin (Homo sapiens, UniProt P16109)
T1 sequence (P16109 whole entry): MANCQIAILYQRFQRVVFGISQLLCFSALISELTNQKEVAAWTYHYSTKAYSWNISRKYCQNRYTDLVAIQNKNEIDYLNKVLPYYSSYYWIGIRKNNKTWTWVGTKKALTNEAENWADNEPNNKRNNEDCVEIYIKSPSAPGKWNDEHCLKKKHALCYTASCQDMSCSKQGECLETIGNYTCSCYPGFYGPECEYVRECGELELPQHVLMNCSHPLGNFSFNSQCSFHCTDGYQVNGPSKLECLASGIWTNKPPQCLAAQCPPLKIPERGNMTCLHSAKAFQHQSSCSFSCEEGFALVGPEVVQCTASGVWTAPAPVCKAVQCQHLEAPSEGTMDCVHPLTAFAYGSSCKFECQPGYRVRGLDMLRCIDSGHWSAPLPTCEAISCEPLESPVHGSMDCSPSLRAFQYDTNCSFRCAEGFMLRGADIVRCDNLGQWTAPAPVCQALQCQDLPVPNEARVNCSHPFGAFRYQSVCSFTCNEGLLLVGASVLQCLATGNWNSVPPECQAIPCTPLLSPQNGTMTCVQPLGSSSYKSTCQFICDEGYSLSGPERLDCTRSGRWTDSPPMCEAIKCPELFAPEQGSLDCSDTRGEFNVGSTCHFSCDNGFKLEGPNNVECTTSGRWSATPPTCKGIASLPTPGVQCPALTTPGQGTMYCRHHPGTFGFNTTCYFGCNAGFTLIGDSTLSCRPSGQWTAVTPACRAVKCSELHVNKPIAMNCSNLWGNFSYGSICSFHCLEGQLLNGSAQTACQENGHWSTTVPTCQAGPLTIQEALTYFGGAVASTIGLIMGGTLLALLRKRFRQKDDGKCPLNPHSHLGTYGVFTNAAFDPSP
Assay: Blocking activity on Selectin P ligand binding

IC50: > 1 mM
Compound: CC(=O)N[C@H]1[C@H]([C@H](O)[C@H](O)CO)O[C@@](O[C@H]2[C@@H](O)[C@@H](CO)O[C@@H](O[C@@H]([C@H](O[C@@H]3O[C@@H](C)[C@@H](O)[C@@H](O)[C@@H]3O)[C@H](C=O)NC(C)=O)[C@H](O)CO)[C@@H]2O)(C(=O)O)C[C@@H]1O [SIALYL LEWIS X]
